This passage reports IC50, GI50 and Activity results from ChEMBL document CHEMBL1156950, “Synthesis and biological evaluation of 4-anilinoquinolines as potent inhibitors of epidermal growth factor receptor” (J Med Chem, 2010).

In assay [1] the target is T1, Epidermal growth factor receptor (Homo sapiens, UniProt P00533). Kind of assay: Inhibition of wild type EGFR by HTRF assay. For orientation: TR-FRET usually uses a lanthanide donor and a delayed reading to cut background.
Assay [2] concerns the target Epidermal growth factor receptor (Homo sapiens, UniProt P00533, L858R). Kind of assay: Inhibition of EGFR Leu858Arg mutant by HTRF assay. In kind it is protein assay.
Assay [3] addresses Epidermal growth factor receptor (Homo sapiens, UniProt P00533, L858R/T790M). In words: Inhibition of EGFR Leu858Arg and Thr790Met mutant by HTRF assay. The format is protein assay.
Assay [4] can be described thus: cells. The conditions noted are these: Mus musculus, BaF3, 96 h.
Description: Growth inhibition of mouse BA/F3 cells expressing EGFR Del1 mutant after 96 hrs by cell titer-glo assay
The nature of assay [5]: cells. The conditions noted are these: Mus musculus, BaF3, 96 h. The source holds these as a separate data set.
Description: Growth inhibition of mouse BA/F3 cells expressing EGFR Del3 mutant after 96 hrs by cell titer-glo assay
Assay [6] is described as follows: cells. The conditions noted are these: Mus musculus, BaF3, 96 h. The source holds these as a separate data set.
Description: Growth inhibition of mouse BA/F3 cells expressing EGFR Del5 mutant after 96 hrs by cell titer-glo assay
Assay [7] in a line: cells. The conditions noted are these: Mus musculus, BaF3, 96 h. The source holds these as a separate data set.
Assay [8] in a line: cells. The conditions noted are these: Mus musculus, BaF3, 96 h. The source holds these as a separate data set.
Description: Growth inhibition of mouse BA/F3 cells expressing EGFR Del1 and Thr790Met mutant after 96 hrs by cell titer-glo assay
A short description of assay [9]: cells. The conditions noted are these: Mus musculus, BaF3, 96 h. The source holds these as a separate data set.
Description: Growth inhibition of mouse BA/F3 cells expressing EGFR Del3 and Thr790Met mutant after 96 hrs by cell titer-glo assay
The nature of assay [10]: cells. The conditions noted are these: Mus musculus, BaF3, 96 h. The source holds these as a separate data set.
Description: Growth inhibition of mouse BA/F3 cells expressing EGFR Del5 and Thr790Met mutant after 96 hrs by cell titer-glo assay
Assay [11] in a line: cells. The conditions noted are these: Mus musculus, BaF3, 96 h. This is another data set of the same source.
The next assay deals with PC-9. Kind of assay: Cytotoxicity against human PC9 cells expressing 746-750 sequence deleted EGFR assessed as cell viability at 0.001 to 10 uM after 96 hrs by cell titer-glo assay. In kind it is functional, cell-based. A general note: Cellular ATP, detected with luciferase, serves as a proxy for viable cell number.
Another assay relates to NCI-H1975. Kind of assay: Cytotoxicity against human NCI-H1975 cells expressing EGFR T790M and L858R mutant at 0.001 to 10 uM after 96 hrs by cell titer-glo assay. In kind it is functional, cell-based.
Assay [12] deals with T1, Epidermal growth factor receptor. In words: Inhibition of 746-750 sequence deleted EGFR autophosphorylation in human PC9 cells after 24 hrs by immunoblotting. The format is cell-based. The conditions noted are these: PC-9. A general note: A western blot detects proteins with antibodies after separation by electrophoresis.

pIC50: −log10 of the molar value. Active and inactive are the calls of the source. The calls are words filed in the database; no cut-off is given here.

T1 sequence (P00533 whole entry): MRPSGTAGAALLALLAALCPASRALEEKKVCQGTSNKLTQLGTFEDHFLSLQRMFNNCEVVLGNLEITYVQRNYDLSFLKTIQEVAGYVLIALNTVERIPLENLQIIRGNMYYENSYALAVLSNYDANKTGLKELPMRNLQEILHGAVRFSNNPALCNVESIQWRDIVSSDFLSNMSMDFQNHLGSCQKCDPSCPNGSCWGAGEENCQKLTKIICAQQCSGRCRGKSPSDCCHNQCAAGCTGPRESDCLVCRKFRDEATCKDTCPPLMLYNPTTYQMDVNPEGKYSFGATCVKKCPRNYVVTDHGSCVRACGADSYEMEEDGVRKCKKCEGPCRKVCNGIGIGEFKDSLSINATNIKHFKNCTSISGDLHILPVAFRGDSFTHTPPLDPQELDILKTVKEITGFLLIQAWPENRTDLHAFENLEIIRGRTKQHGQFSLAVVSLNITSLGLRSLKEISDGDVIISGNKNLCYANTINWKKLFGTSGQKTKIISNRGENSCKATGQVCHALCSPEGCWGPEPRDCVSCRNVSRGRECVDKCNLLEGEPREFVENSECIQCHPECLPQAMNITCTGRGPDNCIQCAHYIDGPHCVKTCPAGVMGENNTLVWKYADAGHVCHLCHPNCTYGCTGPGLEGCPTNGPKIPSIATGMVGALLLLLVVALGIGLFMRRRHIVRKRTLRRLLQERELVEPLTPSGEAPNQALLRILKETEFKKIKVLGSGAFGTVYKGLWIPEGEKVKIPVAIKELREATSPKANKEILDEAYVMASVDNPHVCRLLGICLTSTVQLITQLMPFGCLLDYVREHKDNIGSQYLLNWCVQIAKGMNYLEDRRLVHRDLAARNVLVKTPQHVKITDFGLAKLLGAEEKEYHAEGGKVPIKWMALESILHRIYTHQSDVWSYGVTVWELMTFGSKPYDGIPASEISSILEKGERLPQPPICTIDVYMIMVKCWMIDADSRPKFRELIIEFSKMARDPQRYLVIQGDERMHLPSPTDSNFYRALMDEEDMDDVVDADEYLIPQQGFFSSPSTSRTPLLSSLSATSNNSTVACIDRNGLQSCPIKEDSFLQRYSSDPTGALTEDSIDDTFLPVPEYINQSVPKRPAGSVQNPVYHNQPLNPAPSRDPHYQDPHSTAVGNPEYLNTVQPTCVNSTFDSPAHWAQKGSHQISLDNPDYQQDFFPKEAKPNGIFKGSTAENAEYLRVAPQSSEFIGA
Sequence of Epidermal growth factor receptor (Homo sapiens, UniProt P00533, L858R) (P00533 25-1210 L858R limits assumed): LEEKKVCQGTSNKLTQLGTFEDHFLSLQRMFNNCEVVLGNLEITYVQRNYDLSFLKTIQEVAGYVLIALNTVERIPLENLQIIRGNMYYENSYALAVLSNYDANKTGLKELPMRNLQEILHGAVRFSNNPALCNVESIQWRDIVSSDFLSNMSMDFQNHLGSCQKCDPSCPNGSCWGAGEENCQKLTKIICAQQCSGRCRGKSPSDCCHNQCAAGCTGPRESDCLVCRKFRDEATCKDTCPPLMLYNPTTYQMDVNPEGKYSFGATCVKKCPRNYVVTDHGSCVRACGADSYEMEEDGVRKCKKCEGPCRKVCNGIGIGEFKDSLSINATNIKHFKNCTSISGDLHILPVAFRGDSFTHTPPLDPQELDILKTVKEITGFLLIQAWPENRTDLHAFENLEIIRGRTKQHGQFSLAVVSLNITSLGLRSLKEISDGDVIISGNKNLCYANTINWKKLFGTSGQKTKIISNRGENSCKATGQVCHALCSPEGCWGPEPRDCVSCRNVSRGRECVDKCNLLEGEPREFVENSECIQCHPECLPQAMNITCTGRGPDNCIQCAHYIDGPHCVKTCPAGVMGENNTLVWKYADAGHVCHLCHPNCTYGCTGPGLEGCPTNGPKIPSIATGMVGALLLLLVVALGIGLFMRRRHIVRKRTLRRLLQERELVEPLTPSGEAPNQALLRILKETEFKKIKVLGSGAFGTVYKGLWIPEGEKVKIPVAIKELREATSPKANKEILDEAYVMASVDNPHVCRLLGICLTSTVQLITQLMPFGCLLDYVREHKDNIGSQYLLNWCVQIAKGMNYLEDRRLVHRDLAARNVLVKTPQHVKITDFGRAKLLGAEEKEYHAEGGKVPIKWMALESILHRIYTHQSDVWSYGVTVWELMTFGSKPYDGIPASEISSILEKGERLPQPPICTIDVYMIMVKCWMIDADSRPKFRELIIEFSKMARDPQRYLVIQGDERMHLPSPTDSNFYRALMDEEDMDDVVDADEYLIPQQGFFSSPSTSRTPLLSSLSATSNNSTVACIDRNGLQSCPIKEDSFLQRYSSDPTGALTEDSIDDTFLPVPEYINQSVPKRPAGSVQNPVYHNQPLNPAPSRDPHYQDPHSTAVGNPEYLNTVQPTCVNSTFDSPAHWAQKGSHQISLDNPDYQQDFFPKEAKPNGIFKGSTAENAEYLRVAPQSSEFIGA
Sequence of Epidermal growth factor receptor (Homo sapiens, UniProt P00533, L858R/T790M) (P00533 25-1210 T790M/L858R limits assumed): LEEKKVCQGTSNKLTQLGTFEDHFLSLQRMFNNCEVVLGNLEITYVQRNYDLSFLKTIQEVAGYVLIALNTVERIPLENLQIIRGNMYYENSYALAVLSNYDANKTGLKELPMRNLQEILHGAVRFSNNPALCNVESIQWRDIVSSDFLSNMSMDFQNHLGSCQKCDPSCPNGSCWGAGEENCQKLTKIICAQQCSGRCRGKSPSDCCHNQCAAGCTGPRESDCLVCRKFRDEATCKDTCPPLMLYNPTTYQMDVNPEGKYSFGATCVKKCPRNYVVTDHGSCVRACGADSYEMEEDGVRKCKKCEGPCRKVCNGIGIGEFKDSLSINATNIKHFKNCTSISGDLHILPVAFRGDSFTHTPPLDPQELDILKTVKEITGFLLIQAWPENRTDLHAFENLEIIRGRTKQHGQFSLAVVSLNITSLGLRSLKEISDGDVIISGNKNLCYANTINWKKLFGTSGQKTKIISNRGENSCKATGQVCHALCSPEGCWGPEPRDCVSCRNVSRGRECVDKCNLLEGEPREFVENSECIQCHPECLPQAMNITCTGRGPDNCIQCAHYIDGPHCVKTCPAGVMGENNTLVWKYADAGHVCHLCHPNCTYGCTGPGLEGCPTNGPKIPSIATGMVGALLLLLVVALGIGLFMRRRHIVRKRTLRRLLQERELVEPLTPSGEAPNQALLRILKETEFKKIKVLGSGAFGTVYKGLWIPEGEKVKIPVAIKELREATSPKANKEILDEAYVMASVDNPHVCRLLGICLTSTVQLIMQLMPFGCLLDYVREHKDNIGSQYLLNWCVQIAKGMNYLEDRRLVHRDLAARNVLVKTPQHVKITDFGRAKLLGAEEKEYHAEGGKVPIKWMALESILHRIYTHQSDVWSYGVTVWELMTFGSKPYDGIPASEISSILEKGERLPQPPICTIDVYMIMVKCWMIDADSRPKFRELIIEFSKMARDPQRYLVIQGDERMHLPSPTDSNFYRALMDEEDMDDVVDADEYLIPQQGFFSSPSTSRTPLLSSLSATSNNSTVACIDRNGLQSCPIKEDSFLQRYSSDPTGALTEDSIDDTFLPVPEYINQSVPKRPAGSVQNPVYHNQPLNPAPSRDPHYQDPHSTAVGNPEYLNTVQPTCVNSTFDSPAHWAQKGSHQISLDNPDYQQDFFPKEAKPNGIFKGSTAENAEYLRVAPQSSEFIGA

Broadly, the pIC50 is the negative decadic logarithm of the IC50, by convention in mol/L. Read a low pIC50 as a large IC50. As usually defined, the GI50 is the concentration that inhibits growth by half. A higher GI50 goes with less potent growth inhibition. On to `C#Cc1cccc(Nc2ncnc3cc(OC)c(OC)cc23)c1`, for which the results for the pIC50 in assay [1], in assay [2] and in assay [3] were above 9.00, above 9.00 and 6.85, respectively. In addition, the GI50 was below 500 nM in the assay “cells [4]”; below 500 nM in the assay “cells [5]”; below 500 nM in the assay “cells [6]”; below 500 nM in “cells [7]”; above 500 nM in the assay “cells [8]”; above 5000 nM in “cells [9]”. Moreover, the GI50 in the assay “cells [10]” and in the assay “cells [11]” was above 5000 nM each time.
Take `CCC(=O)Nc1ccc2nccc(Nc3cccc(Br)c3)c2c1`: the GI50 is below 500 nM in “cells [4]”; below 500 nM in the assay “cells [5]”; above 500 nM in the assay “cells [6]”; above 500 nM in “cells [7]”; above 500 nM in the assay “cells [8]”; above 500 nM in the assay “cells [9]”. Besides, the GI50 in “cells [10]” and in the assay “cells [11]” was above 500 nM in each case.
On to `C#Cc1cccc(Nc2ccnc3cc(OC)c(OC)cc23)c1`, for which the pIC50 was 7.72 in assay [1], 8.40 in assay [2] and 5.82 in assay [3]. The GI50 in “cells [4]” was below 500 nM; in the assay “cells [5]” it was below 500 nM; in “cells [6]” it was below 500 nM; in “cells [7]”, below 500 nM; in “cells [8]” it was above 5000 nM; in the assay “cells [9]”, above 5000 nM. Besides, the GI50 in the assay “cells [10]” and in “cells [11]” was above 5000 nM throughout.
Turning to `C=CC(=O)Nc1ccc2nccc(Nc3cccc(Br)c3)c2c1`, the results for the pIC50 in assay [1], in assay [2] and in assay [3] were above 9.00, above 9.00 and 8.49, respectively. In addition, the result in the assay with PC-9 and in the assay on NCI-H1975 was Active. The Activity entry in assay [12] is “Dose-dependent effect”. Moreover, the GI50 was below 500 nM in the assay “cells [4]”; below 500 nM in the assay “cells [5]”; below 500 nM in “cells [6]”; below 500 nM in “cells [7]”; above 500 nM in “cells [8]”; above 500 nM in the assay “cells [9]”. Moreover, the GI50 in the assay “cells [10]” and in the assay “cells [11]” was above 500 nM each time.
Consider `C#Cc1cccc(Nc2ccnc3cc(OCCOC)c(OCCOC)cc23)c1`, for which the pIC50 in assay [1] is 7.52; in [2], 7.85; in assay [3], 5.82. Besides, the GI50 in the assay “cells [4]” is below 500 nM; in “cells [5]”, above 500 nM; in “cells [6]” it was above 5000 nM; in the assay “cells [7]”, below 500 nM; in the assay “cells [8]”, above 500 nM; in the assay “cells [9]”, above 500 nM. In addition, the GI50 in the assay “cells [10]” is above 5000 nM; in “cells [11]” it was above 500 nM.
For `C#Cc1cccc(Nc2ncnc3cc(OCCOC)c(OCCOC)cc23)c1` [ERLOTINIB], the outcome in the assay with PC-9 and with NCI-H1975 was Active. Also, the GI50 in “cells [4]” was below 500 nM; in “cells [5]”, below 500 nM; in “cells [6]”, below 500 nM; in the assay “cells [7]”, below 500 nM; in “cells [8]”, above 5000 nM; in the assay “cells [9]”, above 5000 nM. Also, the GI50 in the assay “cells [10]” and in the assay “cells [11]” was above 5000 nM in each case.
In the case of `C=CC(=O)Nc1ccc2ncnc(Nc3cccc(Br)c3)c2c1`, the GI50 in the assay “cells [4]” is below 500 nM; in “cells [5]”, below 500 nM; in the assay “cells [6]”, below 500 nM; in the assay “cells [7]”, below 500 nM; in “cells [8]”, above 500 nM; in the assay “cells [9]”, below 500 nM. The GI50 in the assay “cells [10]” and in “cells [11]” was below 500 nM throughout.
